# From ChEMBL document CHEMBL5338827, “Evolution and Discovery of Matrine Derivatives as a New Class of Anti-Hepatic Fibrosis Agents Targeting Ewing Sarcoma Breakpoint Region 1 (EWSR1)” (J Med Chem, 2023)
# Calls of active or inactive are those of the source. The calls are words filed in the database; no cut-off is given here.
# Columns and labels:
# LX-2 [1] = assay: Anti-hepatic fibrosis activity in human LX2 cells assessed as inhibition of TGF-beta1 induced alpha-SMA mRNA expression at 20 uM incubated for 24 hrs by qRT-PCR analysis; assay type: functional, cell-based
# COL1A1 = assay: Selectivity index, ratio of CC50 for cytotoxicity against human LX2 cells assessed as reduction in cell viability to IC50 for inhibition of COL1A1 (unknown origin) expressed in human LX2 cells; assay type: toxicity, cell-based; details: LX-2 cells, read-out: Ratio CC50/IC50
# LX-2 [2] = assay: Anti-fibrosis effect in human LX2 cells assessed as reduction in TGFbeta1-induced fibronectin protein expression at 10 to 20 uM measured for 24 hrs; assay type: functional, cell-based; details: dose 10-20 µM
# HSC-T6 = assay: Anti-fibrosis effect in HSC-T6 cells assessed as reduction in TGFbeta1-induced integrin subunit alpha-V protein expression measured for 24 hrs; assay type: functional, cell-based; details: Rattus norvegicus, dose 2.5-20 µM
# Rattus norvegicus [3] = assay: Anti-hepatic fibrosis activity in bile duct ligation rat model assessed as reduction in ITGAV mRNA expression at 100 mg/kg, po administered for 14 days by qRT-PCR analysis; assay type: functional, organism-based; details: time 14.0 day
# LX-2 [4] = assay: Anti-fibrosis effect in human LX2 cells assessed as reduction in TGFbeta1-induced COL1A1 mRNA expression at 10 to 20 uM measured for 24 hrs; assay type: functional, cell-based; details: dose 10-20 µM
# Mus musculus [5] = assay: Anti-hepatic fibrosis activity in MDR2 knockout liver injury mouse model assessed as reduction in TGFB1 mRNA expression at 100 mg/kg, po administered once a day for 4 weeks by qRT-PCR analysis; assay type: functional, organism-based
# LX-2 [6] = assay: Downregulation of CTGF mRNA level in human LX2 cells; assay type: functional, cell-based
# LX-2 [7] = assay: Anti-fibrosis effect in human LX2 cells assessed as reduction in TGFbeta1-induced alpha-SMA mRNA expression at 10 to 20 uM measured for 24 hrs; assay type: functional, cell-based; details: dose 10-20 µM
# Rattus norvegicus [8] = assay: Anti-hepatic fibrosis activity in bile duct ligation rat model assessed as reduction in […] level at 100 mg/kg, po administered for 14 days; assay type: functional; details: time 14 day
# LX-2 [9] = assay: Anti-fibrosis effect in human LX2 cells assessed as reduction in TGFbeta1-induced fibronectin mRNA expression at 10 to 20 uM measured for 24 hrs; assay type: functional, cell-based; details: dose 10-20 µM
# LX-2 [10] = assay: Anti-hepatic fibrosis activity in human LX2 cells assessed as inhibition of TGFbeta1-induced COL1A1 protein expression at 20 uM incubated for 24 hrs by western blot analysis; assay type: functional, cell-based
# Rattus norvegicus [11] = assay: Anti-hepatic fibrosis activity in bile duct ligation rat model assessed as reduction in MMP2 protein expression at 100 mg/kg, po administered for 14 days by Western blot analysis; assay type: functional, organism-based; details: time 14.0 day
# Rattus norvegicus [12] = assay: Anti-hepatic fibrosis activity in bile duct ligation rat model assessed as reduction in bile TBiL level at 100 mg/kg, po administered for 14 days; assay type: functional; details: time 14 day
# Rattus norvegicus [13] = assay: Anti-hepatic fibrosis activity in bile duct ligation rat model assessed as reduction in TGFB1 mRNA expression at 100 mg/kg, po administered for 14 days by qRT-PCR analysis; assay type: functional, organism-based; details: time 14.0 day
# Mus musculus [14] = assay: Anti-hepatic fibrosis activity in MDR2 knockout liver injury mouse model assessed as reduction inflammatory infiltration at 100 mg/kg, po administered once a day for 4 weeks by H and E staining analysis; assay type: functional, organism-based
# LX-2 [15] = assay: Anti-fibrosis effect in human LX2 cells assessed as reduction in TGFbeta1-induced MMP-2 protein expression at 10 to 20 uM measured for 24 hrs; assay type: functional, cell-based; details: dose 10-20 µM
# LX-2 [16] = assay: Effect on EWSR1 expression in human LX2 cells at 2.5 to 20 uM; assay type: functional, cell-based; details: dose 2.5-20 µM
# Rattus norvegicus [17] = assay: Anti-hepatic fibrosis activity in bile duct ligation rat model assessed as reduction in ALP level at 100 mg/kg, po administered for 14 days; assay type: functional; details: time 14 day
# Rattus norvegicus [18] = assay: Anti-hepatic fibrosis activity in bile duct ligation rat model assessed as reduction in serum TBA level at 100 mg/kg, po administered for 14 days; assay type: functional; details: time 14 day
# Rattus norvegicus [19] = assay: Anti-hepatic fibrosis activity in bile duct ligation rat model assessed as reduction in CoL1A1 protein expression at 100 mg/kg, po administered for 14 days by Western blot analysis; assay type: functional, organism-based; details: time 14.0 day
# Rattus norvegicus [20] = assay: Anti-hepatic fibrosis activity in bile duct ligation rat model assessed as reduction collagen accumulation at 100 mg/kg, po administered for 14 days; assay type: functional, organism-based; details: time 14.0 day
# LX-2 [21] = assay: Anti-fibrosis effect in human LX2 cells assessed as reduction in TGFbeta1-induced MMP-2 mRNA expression at 10 to 20 uM measured for 24 hrs; assay type: functional, cell-based; details: dose 10-20 µM
# Mus musculus [22] = assay: Anti-hepatic fibrosis activity in MDR2 knockout liver injury mouse model assessed as reduction in serum TBiL level at 100 mg/kg, po administered once a day for 4 weeks (reference value: 8.72+/-1.72 micromol/L); assay type: functional
# [23] = molecular target: Collagen alpha-1(I) chain (Homo sapiens, UniProt P02452); assay: Inhibition of COL1A1 (unknown origin) expressed in human LX2 cells at 80 uM measured for 24 hrs relative to control; assay type: cell-based
# Collagen alpha-1(I) chain, sequence (P02452 whole entry): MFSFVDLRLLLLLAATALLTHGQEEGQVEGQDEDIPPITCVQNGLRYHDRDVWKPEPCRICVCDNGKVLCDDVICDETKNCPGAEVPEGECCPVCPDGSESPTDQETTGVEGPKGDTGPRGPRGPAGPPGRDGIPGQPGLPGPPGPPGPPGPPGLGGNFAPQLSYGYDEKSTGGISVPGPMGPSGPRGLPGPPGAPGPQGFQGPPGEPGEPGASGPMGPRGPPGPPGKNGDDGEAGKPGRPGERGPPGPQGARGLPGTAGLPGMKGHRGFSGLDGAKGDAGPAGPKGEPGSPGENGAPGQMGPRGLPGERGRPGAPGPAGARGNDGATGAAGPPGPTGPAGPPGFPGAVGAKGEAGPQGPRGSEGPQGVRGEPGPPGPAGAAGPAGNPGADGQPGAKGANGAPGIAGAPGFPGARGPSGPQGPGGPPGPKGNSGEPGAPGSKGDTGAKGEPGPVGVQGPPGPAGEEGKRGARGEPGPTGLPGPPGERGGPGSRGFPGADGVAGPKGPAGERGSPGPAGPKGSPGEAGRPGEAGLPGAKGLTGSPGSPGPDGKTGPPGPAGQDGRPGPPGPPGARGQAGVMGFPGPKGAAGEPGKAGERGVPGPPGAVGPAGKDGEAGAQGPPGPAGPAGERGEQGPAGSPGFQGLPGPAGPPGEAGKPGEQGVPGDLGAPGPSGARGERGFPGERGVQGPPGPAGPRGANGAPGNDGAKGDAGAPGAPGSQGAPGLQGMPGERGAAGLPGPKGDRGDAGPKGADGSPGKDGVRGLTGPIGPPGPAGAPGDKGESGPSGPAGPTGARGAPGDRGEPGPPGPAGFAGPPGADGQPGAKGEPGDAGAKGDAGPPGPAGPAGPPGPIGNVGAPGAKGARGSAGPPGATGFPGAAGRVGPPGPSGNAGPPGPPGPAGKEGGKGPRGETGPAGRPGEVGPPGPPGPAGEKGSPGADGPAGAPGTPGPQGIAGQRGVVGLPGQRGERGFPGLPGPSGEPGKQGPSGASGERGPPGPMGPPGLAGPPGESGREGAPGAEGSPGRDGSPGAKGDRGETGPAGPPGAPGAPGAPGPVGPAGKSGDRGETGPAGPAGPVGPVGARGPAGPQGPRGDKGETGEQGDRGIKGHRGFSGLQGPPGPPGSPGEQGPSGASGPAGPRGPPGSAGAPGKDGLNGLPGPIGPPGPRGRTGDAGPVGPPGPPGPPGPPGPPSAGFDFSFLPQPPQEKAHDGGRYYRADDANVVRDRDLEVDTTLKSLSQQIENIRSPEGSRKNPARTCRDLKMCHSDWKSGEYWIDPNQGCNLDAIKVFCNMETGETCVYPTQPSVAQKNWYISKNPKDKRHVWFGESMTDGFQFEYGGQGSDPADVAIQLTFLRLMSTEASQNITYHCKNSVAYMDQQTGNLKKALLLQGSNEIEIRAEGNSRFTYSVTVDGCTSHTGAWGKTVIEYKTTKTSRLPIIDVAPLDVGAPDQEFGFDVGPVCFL
# LX-2 [24] = assay: Anti-hepatic fibrosis activity in human LX2 cells assessed as inhibition of TGFbeta1-induced MMP-2 protein expression at 20 uM incubated for 24 hrs by western blot analysis; assay type: functional, cell-based
# Rattus norvegicus [25] = assay: Anti-hepatic fibrosis activity in bile duct ligation rat model assessed as reduction in bile TBA level at 100 mg/kg, po administered for 14 days; assay type: functional; details: time 14 day
# LX-2 [26] = assay: Anti-hepatic fibrosis activity in human LX2 cells assessed as inhibition of TGF-beta1 induced MMP-2 mRNA expression at 20 uM incubated for 24 hrs by qRT-PCR analysis; assay type: functional, cell-based
# [27] = molecular target: T1, RNA-binding protein EWS (Homo sapiens) (UniProt Q01844); assay: Binding affinity to EWSR1 (unknown origin) in human LX2 cells by streptavidin bead based pull-down assay; assay type: cell-based
# T1 sequence (whole entry): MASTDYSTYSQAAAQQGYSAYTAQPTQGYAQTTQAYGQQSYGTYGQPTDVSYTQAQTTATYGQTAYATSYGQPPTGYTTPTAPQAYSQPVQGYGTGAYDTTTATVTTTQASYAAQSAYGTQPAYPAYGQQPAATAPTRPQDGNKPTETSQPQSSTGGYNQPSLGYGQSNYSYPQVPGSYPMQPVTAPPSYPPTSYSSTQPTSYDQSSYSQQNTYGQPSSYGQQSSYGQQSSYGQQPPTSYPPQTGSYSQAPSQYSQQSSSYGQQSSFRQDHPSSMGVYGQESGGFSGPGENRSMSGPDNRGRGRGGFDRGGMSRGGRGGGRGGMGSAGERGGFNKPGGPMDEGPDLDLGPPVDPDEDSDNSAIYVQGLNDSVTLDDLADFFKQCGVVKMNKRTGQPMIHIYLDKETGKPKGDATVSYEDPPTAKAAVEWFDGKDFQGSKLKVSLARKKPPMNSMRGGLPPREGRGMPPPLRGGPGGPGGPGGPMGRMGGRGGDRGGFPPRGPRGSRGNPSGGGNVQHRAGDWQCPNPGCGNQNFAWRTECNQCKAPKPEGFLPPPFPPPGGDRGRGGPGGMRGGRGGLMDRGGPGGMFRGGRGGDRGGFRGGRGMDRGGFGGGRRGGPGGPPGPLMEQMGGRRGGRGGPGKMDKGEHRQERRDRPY
structure (smiles),measurement,setting,value
CCCC[C@@H]1[C@H]2CCCN3CCC[C@@H](CN1C(=O)Nc1c(CC)cccc1CC)[C@@H]23,Activity,LX-2 [1],Active
same,selectivity ratio,COL1A1,37.4
same,Activity,LX-2 [2],Active
same,Activity,HSC-T6,Dose-Dependent Effect
same,Activity,Rattus norvegicus [3],Active
same,Activity,LX-2 [4],Active
same,Activity,Mus musculus [5],Active
same,Activity,LX-2 [6],Active
same,Activity,LX-2 [7],Active
same,Activity,Rattus norvegicus [8],36.5 U/L
same,Activity,LX-2 [9],Active
same,Activity,LX-2 [10],Active
same,Activity,Rattus norvegicus [11],Active
same,Activity,Rattus norvegicus [12],4.91 µmol/L
same,Activity,Rattus norvegicus [13],Active
same,Activity,Mus musculus [14],Active
same,Activity,LX-2 [15],Active
same,Activity,LX-2 [16],inactive
same,Activity,Rattus norvegicus [17],375 U/L
same,Activity,Rattus norvegicus [18],173 µmol/L
same,Activity,Rattus norvegicus [19],Active
same,Activity,Rattus norvegicus [20],Active
same,Activity,LX-2 [21],Active
same,Activity,Mus musculus [22],6.58 µmol/L
same,inhibition,[23],99.8%
same,Activity,LX-2 [24],Active
same,Activity,Rattus norvegicus [25],433.11 µmol/L
same,Activity,LX-2 [26],Active
same,Activity,[27],inactive
